Measured values taken from patent US12104188B2, “Modified caspase-9 polypeptides and methods of use thereof” (Allogene Therapeutics, Inc., priority 2017, dated 2024).

How the values were obtained:
[1] = biological target: FKBP12 polypeptide with the F36V mutation (Homo sapiens, UniProt P62942, F37V); conditions: cited from earlier work
[2] = humans; Iuliucci J D, et al., 2001; cited from earlier work
primary T cells = test: Induction of apoptosis in T cells containing chimeric caspase 9 proteins: % live GFP positive cells by flow cytometry, with or without AP1903; type: cell-based, human; conditions: for % GFP, AP1903 / % GFP, 0 mM AP1903: % GFP positive cells, 4 days after AP1903
Protocol: Primary T cells were prepared from each of four different human blood donors (“Donor 1”, “Donor 2”, “Donor 3” and “Donor 8”) as follows.
Previously-frozen primary T cells were thawed and activated with ImmunoCult Human CD3/CD28 T cell activator (StemCell, Cat #10971). 48 hours later, a lentiviral vector which contains a polynucleotide encoding a chimeric caspase 9 protein as described above was added to the activated primary T cells for transduction. Different lentiviral vectors were added to different samples of the primary T cells to test the activity of the different chimeric caspase 9 proteins. The respective lentiviral vectors were provided to the T cells in filtered supernatant from the HEK293T cells. T cells transduced with a polynucleotide encoding a chimeric caspase 9 protein subsequently expressed the respective chimeric caspase 9 protein.
T cells containing different chimeric caspase 9 proteins prepared as described in part A above were assayed for apoptosis in response to the dimeric ligand AP1903.
[…] On the 3rd or 4th day, the cells were measured by flow cytometry to determine the percentage of live cells that are GFP positive (+). (GFP is a marker for the chimeric caspase 9 protein.) Thus, it can be extrapolated that the greater the % of live GFP+ cells, the lower the apoptotic activity of the respective chimeric caspase 9 protein in this assay.

[3] = system: primary T cells from Donor #8; test: Example 2: induction of apoptosis in Donor #8 T cells comprising chimeric caspase-9 proteins with or without a CAR, in response to AP1903; type: cell-based, human; conditions: Day 1 post-AP1903, Donor #8 primary T cells, FIG. 6
Protocol: T cells derived from donor #8 comprising various different chimeric caspase 9 proteins, some of which further comprise a CAR were prepared as described in part 1A above and were assayed for expression of chimeric caspase-9 and for induced apoptosis in response to the dimeric ligand AP1903.
For each assay, about 1,000,000 cells containing a particular chimeric caspase 9 protein were incubated with or without 10 nM AP1903 for 3 or 4 days. On days 1, 2 and 3 post-AP1903 (FIGS. 6, 7, and 8, respectively), the cells were measured by flow cytometry to determine the percentage of live cells that are GFP positive (+) (GFP is a marker for the chimeric caspase 9 protein). Thus, it can be extrapolated that the greater the % of live GFP+ cells, the lower the apoptotic activity of the respective chimeric caspase 9 protein in this assay.
In FIGS. 6-9, for each different chimeric caspase-9 protein, expressed with or without a CAR, there are two adjacent bars. The left-side bar is for the cells incubated without AP1903, and the right-side bar is for the corresponding cells incubated with AP1903. […] This observation is consistent with the application of the D330M-D379E construct as a fast-acting “safety switch” for CAR-T therapies.

[4] = Table 3, Donor # 1, primary T cells
[5] = Table 4, Donor # 2, primary T cells
[6] = Table 5, Donor # 1, primary T cells
[7] = Table 6, Donor # 1, primary T cells
[8] = Table 7, Donor # 3, primary T cells

FKBP12 polypeptide with the F36V mutation, sequence (P62942 whole entry F37V): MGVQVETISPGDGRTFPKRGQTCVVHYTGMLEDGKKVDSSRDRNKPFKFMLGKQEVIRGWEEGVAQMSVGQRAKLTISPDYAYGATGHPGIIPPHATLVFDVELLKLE

Molecule	affinity for FKBP12 with the F36V mutation compared with wild-type FKBP12 [1]	affinity of FKBP12 containing the F36V mutation for AP1903 [1]	well-tolerated dose [2]	% GFP, AP1903 (primary T cells; [4])	% GFP, 0 mM AP1903 (primary T cells; [4])	% GFP, AP1903 (primary T cells; [5])	% GFP, 0 mM AP1903 (primary T cells; [5])	% GFP, AP1903 (primary T cells; [6])	% GFP, 0 mM AP1903 (primary T cells; [6])	% GFP, AP1903 (primary T cells; [7])	% GFP, 0 mM AP1903 (primary T cells; [7])	% GFP, AP1903 (primary T cells; [8])	% GFP, 0 mM AP1903 (primary T cells; [8])	activity profile (high % GFP+ without AP1903, large difference with AP1903) (primary T cells; assessment of Tables 3-7)	speed of induced apoptosis relative to the N405Q construct [3]
CC[C@H](C(=O)N1CCCC[C@H]1C(=O)O[C@H](CCc1ccc(OC)c(OC)c1)c1cccc(OCC(=O)NCCNC(=O)COc2cccc([C@@H](CCc3ccc(OC)c(OC)c3)OC(=O)[C@@H]3CCCCN3C(=O)[C@@H](CC)c3cc(OC)c(OC)c(OC)c3)c2)c1)c1cc(OC)c(OC)c(OC)c1 (relative stereo) [AP1903, 2-Piperidinecarboxylic acid, 1-[(2S)-1-oxo-2-(3,4,5-trimethoxyphenyl)butyl]-, 1,2 ethanediylbis[imino(2-oxo-2,1-ethanediyl)oxy-3,1-phenylene[(1R)-3-(3,-4-dimethoxyphenyl)propylidene]]ester, [2S [1(R*),2R*[S*[S*[1(R*),2R*]]]]]-(9Cl)]	much greater affinity	high affinity	at least 1 mg/kg	–	–	–	–	–	–	–	–	–	–	–	–
D330M-D379E: chimeric caspase 9 protein (SEQ ID NO: 6): FKBP12 F36V dimerization domain, linker, caspase-9 polypeptide without CARD, D330M-D379E double mutation	–	–	–	7%	72%	2%	35%	6.95%	72.3%	5.04%	53.4%	7%	71%	attractive activity profiles	approximately 3 fold
